The IC50 is the point on the concentration scale where inhibition reaches its midpoint.

Experimental findings from ChEMBL document CHEMBL5113471 (Eur J Med Chem, 2022) are described below.

Series [1] deals with Poly [ADP-ribose] polymerase 1 (Homo sapiens, UniProt P09874). Briefly: Inhibition of human recombinant PARP1 in presence of NAD+ by ELISA.
A short description of series [2]: Antiproliferative activity against BRCA1-deficient human UWB1289 cells assessed as inhibition of cell proliferation incubated for 7 days by SRB assay. Format: functional, cell-based. The note with it: UWB1289, 168 h. In general terms: The SRB assay estimates cell density from bound dye.
The nature of series [3]: Antiproliferative activity against human UWB1289 cells with restoration of BRCA1 expression assessed as inhibition of cell proliferation incubated for 7 days by SRB assay. The format is functional, cell-based. Conditions: UWB1289, 168 h.
Series [4] has as its system MDA-MB-436. Briefly: Antiproliferative activity against BRCA1-deficient human MDA-MB-436 cells assessed as inhibition of cell proliferation incubated for 7 days by CCK-8 assay. The format is functional, cell-based. The note with it: MDA-MB-436, 168 h. For orientation: Tetrazolium dyes change colour on reduction, which living cells bring about.
Series [5] relates to CAPAN-1. Briefly: Antiproliferative activity against BRCA2-deficient human CAPAN-1 cells assessed as inhibition of cell proliferation incubated for 7 days by CellTiter-Glo assay. Format: functional, cell-based. Conditions: CAPAN-1, 168 h. For orientation: ATP-based viability assays read luminescence as a measure of living cells.
Series [6] is described as follows: Cytotoxicity against human IMR-90 cells expressing wild type BRCA-1 assessed as inhibition of cell proliferation incubated for 7 days by SRB assay. The format is toxicity, cell-based.
Series [7] in a line: Cytotoxicity against human WI-38 cells expressing wild type BRCA1 assessed as inhibition of cell proliferation incubated for 7 days by SRB assay. Format: toxicity, cell-based.
Series [8] concerns MDA-MB-436. Description: Induction of DNA double strand breaks in human MDA-MB-436 cells assessed as increase in gamma-H2AX level incubated for 48 hrs by western blot analysis. Conditions: dose 0.1-1 µM, DDE = dose-dependent effect. The format is functional, cell-based.
For series [9], the system named is CAPAN-1. Description: Induction of DNA double strand breaks in human CAPAN-1 cells assessed as increase in gamma-H2AX level incubated for 48 hrs by western blot analysis. Format: functional, cell-based. Conditions: dose 0.1-1 µM, DDE = dose-dependent effect.
Series [10] concerns CAPAN-1. Briefly: Induction of DNA double strand breaks in human CAPAN-1 cells assessed as increase in gamma-H2AX level at 10 uM incubated for 48 hrs by immunofluorescence-based laser confocal microscopy. Format: functional, cell-based.
The test system of series [11] is MDA-MB-436. Briefly: Induction of DNA double strand breaks in human MDA-MB-436 cells assessed as increase in Chk1 phosphorylation at Ser345 residue incubated for 48 hrs by western blot analysis. Conditions: dose 0.1-1 µM. Format: functional, cell-based.
Series [12] deals with CAPAN-1. Description: Induction of DNA double strand breaks in human CAPAN-1 cells assessed as increase in Chk1 phosphorylation at Ser345 residue incubated for 48 hrs by western blot analysis. Format: functional, cell-based. The note with it: dose 0.1-1 µM.
For series [13], the system named is CAPAN-1. Description: Induction of cell cycle arrest at G2/M phase in human CAPAN-1 cells incubated for 48 hrs by propidium iodide staining based flow cytometry. The format is functional. The note with it: dose 1-10 µM, DDE = dose-dependent effect.
Series [14] deals with CAPAN-1. Briefly: Induction of apoptosis in human CAPAN-1 cells assessed as early apoptotic cells at 1 uM incubated for 96 hrs by AnnexinV-FITC/PI staining based flow cytometry (reference value: 5.08%). Format: functional.
Series [15] deals with CAPAN-1. Description: Induction of apoptosis in human CAPAN-1 cells assessed as late apoptotic cells at 1 uM incubated for 96 hrs by AnnexinV-FITC/PI staining based flow cytometry (reference value: 8.99%). The format is functional.
Series [16] relates to CAPAN-1. Description: Induction of apoptosis in human CAPAN-1 cells assessed as early apoptotic cells at 5 uM incubated for 96 hrs by AnnexinV-FITC/PI staining based flow cytometry (reference value: 5.08%). Format: functional.
Series [17] concerns CAPAN-1. Briefly: Induction of apoptosis in human CAPAN-1 cells assessed as late apoptotic cells at 5 uM incubated for 96 hrs by AnnexinV-FITC/PI staining based flow cytometry (reference value: 8.99%). Format: functional.
The test system of series [18] is CAPAN-1. Briefly: Induction of apoptosis in human CAPAN-1 cells assessed as early apoptotic cells at 10 uM incubated for 96 hrs by AnnexinV-FITC/PI staining based flow cytometry (reference value: 5.08%). Format: functional.
Series [19] concerns CAPAN-1. Briefly: Induction of apoptosis in human CAPAN-1 cells assessed as late apoptotic cells at 10 uM incubated for 96 hrs by AnnexinV-FITC/PI staining based flow cytometry (reference value: 8.99%). Format: functional.

Each structure is given as a SMILES string. Activity calls are given as the source filed them. The rule behind the calls is not given here. Where only a bound is given, the exact number is not on record here.

Sequence of Poly [ADP-ribose] polymerase 1 (P09874 whole entry): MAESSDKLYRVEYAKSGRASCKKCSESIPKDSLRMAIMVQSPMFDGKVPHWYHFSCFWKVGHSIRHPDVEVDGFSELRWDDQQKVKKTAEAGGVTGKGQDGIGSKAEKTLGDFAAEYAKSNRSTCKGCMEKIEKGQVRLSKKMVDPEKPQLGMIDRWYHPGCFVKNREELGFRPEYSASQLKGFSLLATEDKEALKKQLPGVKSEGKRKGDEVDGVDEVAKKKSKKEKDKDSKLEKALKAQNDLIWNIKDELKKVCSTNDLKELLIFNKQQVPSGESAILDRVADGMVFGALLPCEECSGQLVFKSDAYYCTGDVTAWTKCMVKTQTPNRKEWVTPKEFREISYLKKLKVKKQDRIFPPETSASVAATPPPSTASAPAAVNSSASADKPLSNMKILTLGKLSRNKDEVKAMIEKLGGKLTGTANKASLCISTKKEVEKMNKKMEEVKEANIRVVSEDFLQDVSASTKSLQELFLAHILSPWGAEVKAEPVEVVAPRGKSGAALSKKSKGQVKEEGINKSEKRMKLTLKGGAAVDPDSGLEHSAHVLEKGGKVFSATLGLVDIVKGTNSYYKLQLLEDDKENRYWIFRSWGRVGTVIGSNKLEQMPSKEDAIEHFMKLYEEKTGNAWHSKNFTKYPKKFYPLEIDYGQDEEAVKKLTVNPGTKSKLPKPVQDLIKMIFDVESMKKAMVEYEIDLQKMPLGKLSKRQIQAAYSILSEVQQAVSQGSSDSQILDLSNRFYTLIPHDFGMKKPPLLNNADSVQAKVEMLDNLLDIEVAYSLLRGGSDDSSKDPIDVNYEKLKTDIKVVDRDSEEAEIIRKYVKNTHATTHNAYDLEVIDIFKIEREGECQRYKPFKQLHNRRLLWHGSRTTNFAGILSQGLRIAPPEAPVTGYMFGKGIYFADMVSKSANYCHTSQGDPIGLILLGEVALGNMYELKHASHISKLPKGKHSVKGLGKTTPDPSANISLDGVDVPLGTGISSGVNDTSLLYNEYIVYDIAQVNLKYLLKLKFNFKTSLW

`C[C@H]1CCC[C@]2(C)CC3OC(=O)C(CNCCC(=O)N4CCN(C(=O)c5cc(Cc6n[nH]c(=O)c7ccccc67)ccc5F)CC4)C3C=C12` (some centres not stated): the IC50 in [1] came to 15.5 nM.
For `C=C1C(=O)OC2C[C@@]3(C)CCC=C(COC(=O)CCNC(=O)c4cc(Cc5n[nH]c(=O)c6ccccc56)ccc4F)C3=CC12` (some centres not stated), the IC50 in series [1] was found to be 134 nM.
As for `C=C1C(=O)OC2C[C@@]3(C)CCC=C(COC(=O)CCN(C)C(=O)c4cc(Cc5n[nH]c(=O)c6ccccc56)ccc4F)C3=CC12` (some centres not stated), the IC50 in [1] was 2.18 nM; in series [2], 900 nM; in series [3], 1210 nM; in series [4], 2190 nM; in [5] it was 1280 nM.
`C=C1C(=O)OC2C[C@@]3(C)CCC=C(COC(=O)CC4CCN(C(=O)c5cc(Cc6n[nH]c(=O)c7ccccc67)ccc5F)CC4)C3=CC12` (some centres not stated): the IC50 in [1] came out at 69.9 nM.
For the compound `C[C@H]1CCC[C@]2(C)CC3OC(=O)C(CNCCCCCCCC(=O)N4CCN(C(=O)c5cc(Cc6n[nH]c(=O)c7ccccc67)ccc5F)CC4)C3C=C12` (some centres not stated), the IC50 is 2.99 nM in series [1]; 270 nM in series [2]; 1430 nM in [3]; 190 nM in series [4]; 870 nM in series [5]. The IC50 at 7 days worked out at 11700 nM in [6] and 11800 nM in [7]. The Activity entry in series [8] is “Dde”; in series [9], “Dde”; in series [13], “Dde”; in [14] it was 5.52%; in [15] it was 14.4%; in series [16], 7.21%. Also, the values for the Activity in series [17], in series [18] and in series [19] were 13.9%, 35.4% and 58.2%, respectively. Also, the result in [10], in series [11] and in [12] was Active.
For `C[C@H]1CCC[C@]2(C)CC3OC(=O)C(CN(C)CC(=O)N4CCN(C(=O)c5cc(Cc6n[nH]c(=O)c7ccccc67)ccc5F)CC4)C3C=C12` (some centres not stated), in series [1], the half-inhibitory concentration (IC50) worked out at 20.3 nM.
Still for that read-out and setting: then `C=C1C(=O)OC2C[C@@]3(C)CCC=C(COC(=O)CCCC4CCN(C(=O)c5cc(Cc6n[nH]c(=O)c7ccccc67)ccc5F)CC4)C3=CC12` (some centres not stated), with 129 nM; and `C=C1C(=O)OC2C[C@@]3(C)CCC=C(COC(=O)CC4CCCN(C(=O)c5cc(Cc6n[nH]c(=O)c7ccccc67)ccc5F)C4)C3=CC12` (some centres not stated), with 65.2 nM.
Consider `C[C@H]1CCC[C@]2(C)CC3OC(=O)C(CNOCC(=O)N4CCN(C(=O)c5cc(Cc6n[nH]c(=O)c7ccccc67)ccc5F)CC4)C3C=C12` (some centres not stated), for which the IC50 in series [1] is 19.7 nM.
With `C=C1C(=O)OC2C[C@@]3(C)CCC=C(COC(=O)c4cc(Cc5n[nH]c(=O)c6ccccc56)ccc4F)C3=CC12` (some centres not stated), the IC50 in series [1] worked out at 2600 nM.
For `C=C1C(=O)OC2C[C@@]3(C)CCC=C(COC(=O)COCCOCCNC(=O)c4cc(Cc5n[nH]c(=O)c6ccccc56)ccc4F)C3=CC12` (some centres not stated), in series [1], the IC50 stood at 38.6 nM.
As to `C[C@H]1CCC[C@]2(C)CC3OC(=O)C(CN(C)CCCC(=O)N4CCN(C(=O)c5cc(Cc6n[nH]c(=O)c7ccccc67)ccc5F)CC4)C3C=C12` (some centres not stated), in series [1], the IC50 was determined as 43 nM.
In the case of `C[C@]12CCC=C(CO)C1=CC1C(C2)OC(=O)C1CNCCCCCCCC(=O)N1CCN(C(=O)c2cc(Cc3n[nH]c(=O)c4ccccc34)ccc2F)CC1` (some centres not stated), the IC50 in [1] came to 422 nM.
For `C=C1C(=O)O[C@@H]2C[C@@]3(C)CCC[C@H](C)C3=C[C@H]12` [HELENINE], the IC50 in series [1] is greater than 10000 nM.
Same read-out and setting: then `C[C@H]1CCC[C@]2(C)CC3OC(=O)C(CNCCOCCOCCOCC(=O)N4CCN(C(=O)c5cc(Cc6n[nH]c(=O)c7ccccc67)ccc5F)CC4)C3C=C12` (some centres not stated), with 73.4 nM; and `C=C1C(=O)OC2C[C@@]3(C)CCC=C(COC(=O)C4CN(C(=O)c5cc(Cc6n[nH]c(=O)c7ccccc67)ccc5F)C4)C3=CC12` (some centres not stated), with 279 nM.
Turning to `C[C@H]1CCC[C@]2(C)CC3OC(=O)C(CN4CCN(C(=O)c5cc(Cc6n[nH]c(=O)c7ccccc67)ccc5F)CC4)C3C=C12` (some centres not stated), the IC50 in [1] turned out to be 136 nM.
For `C[C@H]1CCC[C@]2(C)CC3OC(=O)C(CN(C)CCC(=O)N4CCN(C(=O)c5cc(Cc6n[nH]c(=O)c7ccccc67)ccc5F)CC4)C3C=C12` (some centres not stated), in series [1], the IC50 worked out at 43.9 nM.
The same measure, in the same setting: for `C[C@H]1CCC[C@]2(C)CC3OC(=O)C(CNCC(=O)N4CCN(C(=O)c5cc(Cc6n[nH]c(=O)c7ccccc67)ccc5F)CC4)C3C=C12` (some centres not stated) the value was 25.5 nM.
Consider `C=C1C(=O)OC2C[C@@]3(C)CCC=C(COC(=O)CCC4CCN(C(=O)c5cc(Cc6n[nH]c(=O)c7ccccc67)ccc5F)CC4)C3=CC12` (some centres not stated), for which the IC50 in series [1] stood at 79.2 nM.
Regarding `C[C@]12CCC=C(C=O)C1=CC1C(C2)OC(=O)C1CNCCOCCOCC(=O)N1CCN(C(=O)c2cc(Cc3n[nH]c(=O)c4ccccc34)ccc2F)CC1` (some centres not stated), the IC50 in series [1] was determined as 88.4 nM.
As to `O=C(c1cc(Cc2n[nH]c(=O)c3ccccc23)ccc1F)N1CCN(C(=O)C2CC2)CC1` [OLAPARIB], the half-inhibitory concentration (IC50) in series [2] was 660 nM; in series [3], 4650 nM; in [4], 100 nM; in series [5] it was 530 nM. The Activity result is “Dde” in [8]; “Dde” in series [9]; 4.92% in [14]; 10.1% in series [15]; 5.74% in [16]; 12.9% in series [17]. Besides, the results for the Activity in [18] and in series [19] were 9.82% and 19%, respectively. For the same compound, in series [10], the result was Active.
As to `C[C@H]1CCC[C@]2(C)CC3OC(=O)C(CNCCCC(=O)N4CCN(C(=O)c5cc(Cc6n[nH]c(=O)c7ccccc67)ccc5F)CC4)C3C=C12` (some centres not stated), the IC50 in series [1] turned out to be 8.33 nM; in [2], 1120 nM; in [3] it was 2250 nM; in [4], 200 nM; in series [5], 990 nM.
On to `C[C@]12CCC=C(CO)C1=CC1C(C2)OC(=O)C1CN1CCN(C(=O)c2cc(Cc3n[nH]c(=O)c4ccccc34)ccc2F)CC1` (some centres not stated), for which the IC50 in series [1] was found to be 94.9 nM.
For the compound `C=C1C(=O)OC2C[C@@]3(C)CCC=C(CN4CCN(C(=O)c5cc(Cc6n[nH]c(=O)c7ccccc67)ccc5F)CC4)C3=CC12` (some centres not stated), in series [1], the IC50 came out at 170 nM.
In the case of `C[C@]12CCC=C(CO)C1=CC1C(C2)OC(=O)C1CNCCOCCOCC(=O)N1CCN(C(=O)c2cc(Cc3n[nH]c(=O)c4ccccc34)ccc2F)CC1` (some centres not stated), the IC50 in series [1] turned out to be 5.91 nM; in [2], 410 nM; in [3] it was 2570 nM; in [4], 190 nM; in series [5], 750 nM. Besides, the concentration for half-maximal inhibition (IC50) at 7 days came to 10100 nM in [6] and 12000 nM in [7]. Moreover, the Activity result in series [8] is “Dde”; in series [9], “Dde”; in series [13] it was “Dde”; in [14], 6.64%; in series [15], 12.6%; in [16], 9.68%. The Activity in series [17] came to 16.5%; in series [18], 12.5%; in series [19], 33.5%. Also, the result in series [10], in series [11] and in series [12] was Active.
